Assay in all cases: growth of human tumour cells (NCI), 48 h
Experiment [1] deals with A498 renal.
Experiment [2] deals with M14 melanoma.
The test system of experiment [3] is MDA-MB-231 breast.
The test system of experiment [4] is RXF 393 renal.
For experiment [5], the system named is SF-268 CNS.
Experiment [6] concerns SK-MEL-5 melanoma.
The test system of experiment [7] is SW-620 colon.
Experiment [8] concerns UO-31 renal.
For experiment [9], the system named is CCRF-CEM leukemia.
The test system of experiment [10] is HCC-2998 colon.
In experiment [11] the test system is IGROV1 ovarian.
Experiment [12] relates to LOX IMVI melanoma.

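Dose response: 5 concentrations. Exposure: 48 h. Format: 96-well plates. Endpoint: linear interpolation; highest concentration if not reached. The concentration for full growth arrest is given as TGI.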 Where a SMILES comes first, the peptide text is derived from it. The star is where a group is joined. Boc = CC(C)(C)OC(=O)* Bounds are passed on as bounds.

As to `CCc1nn(S(=O)(=O)c2ccc(C)cc2)c2c1CS(=O)(=O)CC2`, the TGI in [1], in experiment [2], in experiment [3], in [4], in [5] and in experiment [6] was above 100 µM in each case. The TGI in experiment [7] and in [8] was above 100 µM in each case.
In the case of `COC(=O)C(Cc1c[nH]c2ccccc12)NC(=O)C(Cc1c[nH]c2ccccc12)NC(=O)C(Cc1c[nH]c2ccccc12)NC(=O)C(Cc1c[nH]c2ccccc12)NC(=O)OC(C)(C)C` (configuration not stated) (Boc-WWWW-OMe; configuration not given here), the TGI was 34.3 µM in experiment [9]; 38.5 µM in [10]; above 100 µM in experiment [11]; 28 µM in experiment [12]; above 100 µM in [2]; above 100 µM in [3]. The TGI in experiment [5] was above 100 µM; in [6] it was above 100 µM; in [7], 62.8 µM; in experiment [8], above 100 µM.
`Cc1cc2ccccc2n1CC(=O)N1CCCC1`: the TGI in experiment [9], in [10], in [11], in experiment [12], in experiment [2] and in [3] was above 100 µM throughout. The TGI in experiment [4], in experiment [5], in experiment [6], in [7] and in experiment [8] was above 100 µM throughout.
Regarding `N/N=C1/C(=N/O)CCc2nonc21`, the TGI in experiment [9], in experiment [10], in experiment [11], in experiment [12], in [2] and in experiment [3] was above 100 µM throughout. Moreover, the TGI in experiment [4], in [5], in experiment [6], in [7] and in [8] was above 100 µM each time.
For the compound `Cc1cc(=O)n2nc(CSc3nnc(N)s3)sc2n1`, the TGI in experiment [9], in experiment [10], in experiment [11], in experiment [12], in experiment [2] and in experiment [3] was above 100 µM in each case. Also, the TGI in [4], in experiment [5], in experiment [6], in experiment [7] and in experiment [8] was above 100 µM in each case.
With `CC(NC(=O)OCc1ccccc1)NC(=O)C(CC(=O)OC(C)(C)C)NC(=O)OC(C)(C)C` (configuration not stated), the TGI in experiment [1], in experiment [9], in experiment [11], in experiment [12], in experiment [2] and in experiment [3] was above 100 µM each time. In addition, the TGI in experiment [4], in [5], in experiment [6], in experiment [7] and in experiment [8] was above 100 µM each time.
Regarding `Cc1nccn1S(=O)(=O)c1ccc(Br)cc1Br`, the TGI was above 100 µM in experiment [1]; 98.3 µM in experiment [9]; above 100 µM in experiment [11]; above 100 µM in experiment [12]; 39.7 µM in experiment [2]; 48.5 µM in experiment [3]. The TGI in experiment [4] is 76.3 µM; in [5], above 100 µM; in [6], 43.9 µM; in experiment [7] it was above 100 µM; in [8], 68.7 µM.
Take `COc1ccccc1NC(=S)N/N=C(/C)c1ccccn1`: the TGI in [9] is 0.0737 µM; in experiment [10], above 100 µM; in experiment [12] it was 67.2 µM; in experiment [2], 2.54 µM; in [3] it was 7.46 µM; in experiment [4], 23.4 µM. Besides, the results for the TGI in experiment [7] and in [8] were above 100 µM and above 83.4 µM, respectively.
As for `CC(C)(C)OC(=O)NC(Cc1ccc(O)cn1)C(N)=O` (configuration not stated), the TGI in experiment [1], in [10], in experiment [11], in experiment [12], in experiment [3] and in experiment [4] was above 100 µM each time. The TGI in experiment [5], in experiment [6], in experiment [7] and in experiment [8] was above 100 µM each time.
Turning to `COc1ccc(C(=C(I)c2ccccc2)c2ccc(OC)cc2)cc1`, the TGI in experiment [9], in [10], in experiment [11], in experiment [12], in [2] and in experiment [3] was above 100 µM each time. For the same compound, the TGI in [4], in experiment [5], in [6], in experiment [7] and in experiment [8] was above 100 µM each time.
Turning to `C[C@H](CC[C@@H](O)C(C)(C)O)[C@H]1CC[C@@]2(C)[C@@H]3CC=C4[C@@H](CC[C@H](O)C4(C)C)[C@]3(C)C(=O)C[C@]12C`, the TGI in experiment [1], in experiment [9], in [11], in experiment [12], in experiment [2] and in experiment [3] was above 50 µM throughout. For the same compound, the TGI in experiment [6], in [7] and in experiment [8] was above 50 µM each time.
Consider `O=C(Nc1nnc(-c2ccccc2)o1)C(SC(=S)N1CCOCC1)c1ccccc1` (configuration not stated), for which the TGI in experiment [1] was 89.6 µM; in [9], above 100 µM; in experiment [11], above 100 µM; in [12], above 100 µM; in experiment [2] it was above 100 µM; in experiment [3] it was above 100 µM. For the same compound, the TGI in experiment [4] was above 100 µM; in [6], 38.7 µM; in experiment [7], above 100 µM; in experiment [8] it was above 100 µM.
In the case of `COc1ccc(-c2nc(-c3cc4ccccc4oc3=O)cs2)cc1`, the TGI is above 100 µM in experiment [9]; above 100 µM in experiment [10]; above 100 µM in experiment [11]; above 100 µM in experiment [12]; above 100 µM in experiment [2]; 53.8 µM in [3]. Moreover, the TGI in experiment [4], in experiment [5], in experiment [6], in [7] and in experiment [8] was above 100 µM in each case.

The values are drawn from PubChem BioAssay (NCI).
